These results are taken from PMC6759476, “Prior Activation of 5-HT7 Receptors Modulates the Conditioned Place Preference With Methylphenidate” (Frontiers in Behavioral Neuroscience, 2019).

In general, Ki refers to a measure of affinity in units of concentration, obtained from inhibition or displacement.

One data set relates to mice. Further details: method as in Galici et al., 2008; Waters et al., 2012. The conditions noted are these: ref Galici et al., 2008, Waters et al., 2012; cited from earlier work.
The subject of data set [1] is rats. Further details: method as in Galici et al., 2008; Waters et al., 2012. The conditions noted are these: ref Galici et al., 2008, Waters et al., 2012; cited from earlier work.
For data set [2], the system named is rats. In words: Conditioned place preference with MPH and TP-22. It is filed as in vivo, rat (Wistar-Han). An excerpt:
The experimental apparatus used for the CPP test is a Black/White Box (BWB; Adriani et al., [2012]), i.e., a Plexiglas box with smooth walls and floor (70 × 30 × 35 cm) composed of two environments separated by a central gray wall placed at a distance of about 35 cm from end walls. The walls on the longer sides are gray whereas those on the short margins can be distinguished by black or white color. To make the two environments more recognizable, we added additional visual cues: three horizontal white stripes to the black wall and three vertical black stripes to the white wall. On the central gray wall there is a door with an easily removable panel (partition), allowing the experimental subjects to pass (or not) from one compartment chamber to the other, when required.
On both longer sides of the box, there are two aluminum bars equipped with eight photocells connected by cables to a computer. The software in use is Cage controller 1.27 for Dark Light for Rat and Mouse® (PRS, Rome, Italy)^2, that allows to score for each subject:
• Motor activity (beam interruptions per second) in either chamber • Time spent in each chamber (both forepaws and hindpaws in a same chamber) • Transitions (number of times a subject crosses the door between the two chambers)
This test was carried out under dim light and required nine not consecutive days divided into four steps (Figures 2–4):
• Day 1, initial preference test. The spontaneous place preference of experimental subjects was tested in drug-free conditions. They were initially placed in the black chamber (chosen as starting room) and central door was open during the whole test (15 min). The triplet of rats residing in each home cage was tested at the same time. • Days 2–7, drug conditioning. On odd days all 18 subjects were injected with saline solution only and, after injection, immediately placed in the black chamber. […]
The dependent variable was calculated as final preference day minus initial preference day. […]

Another data set addresses 5-HT1A. Also on record: method as in Lacivita et al., 2016. The conditions noted are these: ref Lacivita et al., 2016; cited from earlier work.
For a further data set, the target named is 5-HT6. Also on record: method as in Lacivita et al., 2016. The conditions noted are these: ref Lacivita et al., 2016; cited from earlier work.
Another data set concerns the target D2. Also on record: method as in Lacivita et al., 2016. The conditions noted are these: ref Lacivita et al., 2016; cited from earlier work.
For the next data set, the target named is Alfa-1. Also on record: method as in Lacivita et al., 2016. The conditions noted are these: ref Lacivita et al., 2016; cited from earlier work.
On the set-up of data set [3]: method as in Lacivita et al., 2016; Modica et al., 2018. The note with it: in vivo bio-distribution; ref Lacivita et al., 2016; Modica et al., 2018; cited from earlier work.

For `CC1CCN(CC[C@H]2CCCN2S(=O)(=O)c2cccc(O)c2)CC1` [SB-269970], the amphetamine-induced hyperactivity entry in the data set with mice and in the data set with rats [1] was “significantly attenuated” throughout.
On to `COC(=O)C(c1ccccc1)C1CCCCN1` (stereo not shown) [MPH, methylphenidate], for which, in the data set with rats [2] (VEH then MPH 5 mg/kg i.v., vs saline control, P < 0.01), the “locomotor activity on drug conditioning days (white chamber)” value is reported as “significantly enhanced”. The “activity rate, post-conditioning preference test minus initial test” value in the data set with rats [2] (drug-free, VEH+MPH conditioned rats) is on record as “negative during the entire session”. In the data set on rats [2] (drug-free, VEH+MPH conditioned rats, first 05 min), the “time spent in the white side, post-conditioning preference test” value was “slight preference for the white side”.
In the case of `N#Cc1ccc(CNC(=O)CCCCCN2CCN(c3ccccc3-c3ccccc3)CC2)cc1` [LP-211, N-(4-cyanophenylmethyl)-4–(2-biphenyl)-1-piperazinehexanamide], the Ki at 5-HT1A was 379 nM; on 5-HT6, 1570 nM; at D2, 242 nM; on Alfa-1, 22.6 nM. Further, the “brain Cmax” value in data set [3] is on record as 540 ng/mL.
